Test results as given in patent US10253007B2, “Taxanes compounds, preparation method therefor, and uses thereof” (Jiangsu Tasly Diyi Pharmaceutical Co., Ltd., priority 2013, dated 2019).

What was measured:
[1] = MTT assay, proliferation inhibition; type: cell-based; conditions: Homo sapiens, LN-18 gastric cancer, read-out: Proliferation inhibition rate
Source text: (§1) 1. Cytotoxicity Assay Using Human Tumor Cell Lines
(§2) Paclitaxel was used as the positive drug.

A2780 ovarian cancer = assay: MTT assay, proliferation inhibition; type: cell-based; conditions: Homo sapiens, read-out: Proliferation inhibition rate
Source text: as §1, §2

A375 melanoma = assay: MTT assay, proliferation inhibition; type: cell-based; conditions: Homo sapiens, A-375, read-out: Proliferation inhibition rate
Source text: as §1, §2

[2] = system: A549 non-small cell lung cancer; assay: MTT assay, proliferation inhibition; type: cell-based; conditions: Homo sapiens, read-out: Proliferation inhibition rate
Source text: as §1, §2

B16 melanoma = assay: MTT assay, proliferation inhibition; type: cell-based; conditions: read-out: Proliferation inhibition rate
Source text: as §1, §2

BGC-823 gastric cancer = assay: MTT assay, proliferation inhibition; type: cell-based; conditions: Homo sapiens, read-out: Proliferation inhibition rate
Source text: as §1, §2

DU145 prostate cancer = assay: MTT assay, proliferation inhibition; type: cell-based; conditions: Homo sapiens, DU-145, read-out: Proliferation inhibition rate
Source text: as §1, §2

HCT 116 colon cancer = assay: MTT assay, proliferation inhibition; type: cell-based; conditions: Homo sapiens, read-out: Proliferation inhibition rate
Source text: as §1, §2

HL60 leukemia = assay: MTT assay, proliferation inhibition; type: cell-based; conditions: Homo sapiens, HL-60, read-out: Proliferation inhibition rate
Source text: as §1, §2

HT29 colon cancer = assay: MTT assay, proliferation inhibition; type: cell-based; conditions: Homo sapiens, HT-29, read-out: Proliferation inhibition rate
Source text: as §1, §2

HeLa cervical cancer = assay: MTT assay, proliferation inhibition; type: cell-based; conditions: Homo sapiens, read-out: Proliferation inhibition rate
Source text: as §1, §2

K562 leukemia = assay: MTT assay, proliferation inhibition; type: cell-based; conditions: Homo sapiens, read-out: Proliferation inhibition rate
Source text: as §1, §2

LNCaP prostate cancer = assay: MTT assay, proliferation inhibition; type: cell-based; conditions: Homo sapiens, read-out: Proliferation inhibition rate
Source text: as §1, §2

MCF-7 breast cancer = assay: MTT assay, proliferation inhibition; type: cell-based; conditions: Homo sapiens, MCF7, read-out: Proliferation inhibition rate
Source text: as §1, §2

MDA-MB-436 breast cancer = assay: MTT assay, proliferation inhibition; type: cell-based; conditions: Homo sapiens, read-out: Proliferation inhibition rate
Source text: as §1, §2

[3] = system: NCI-H460 non-small cell lung cancer; assay: MTT assay, proliferation inhibition; type: cell-based; conditions: Homo sapiens, read-out: Proliferation inhibition rate
Source text: as §1, §2

[4] = Caco-2 cell monolayer membrane transport assay; conditions: human, A-B; for Papp A→B: Caco-2, Papp A-B; for recovery: Caco-2, Recovery rate in mass
Source text: Caco-2 Cell Monolayer Membrane Transport Assay
Human-derived colorectal adenocarcinoma cell line Caco-2 cell monolayer model was used to study the bidirectional transport of the target compounds from the apical (AP) side to the basolateral (BL) side and from BL side to AP side. HPLC was used for quantitative analysis to calculate transport parameters, apparent permeability coefficient (Papp) and the efflux ratio.

[5] = Mean, Caco-2, mean of two samples

| SMILES | inhibition at 1 µM [1] [%] | inhibition at 1 µM (A2780 ovarian cancer) [%] | inhibition at 1 µM (A375 melanoma) [%] | inhibition at 1 µM [2] [%] | inhibition at 1 µM (B16 melanoma) [%] | inhibition at 1 µM (BGC-823 gastric cancer) [%] | inhibition at 1 µM (DU145 prostate cancer) [%] | inhibition at 1 µM (HCT 116 colon cancer) [%] | inhibition at 1 µM (HL60 leukemia) [%] | inhibition at 1 µM (HT29 colon cancer) [%] | inhibition at 1 µM (HeLa cervical cancer) [%] | inhibition at 1 µM (K562 leukemia) [%] | inhibition at 1 µM (LNCaP prostate cancer) [%] | inhibition at 1 µM (MCF-7 breast cancer) [%] | inhibition at 1 µM (MDA-MB-436 breast cancer) [%] | inhibition at 1 µM [3] [%] | Papp A→B ([4]; Sample-01, Caco-2, Sample-01) [×10⁻⁶ cm/s] | Papp A→B ([4]; Sample-02, Caco-2, Sample-02) [×10⁻⁶ cm/s] | recovery [4, 5] [%] | recovery ([4]; Sample-01, Caco-2, Sample-01) [%] | also measured |
| --- | --- | --- | --- | --- | --- | --- | --- | --- | --- | --- | --- | --- | --- | --- | --- | --- | --- | --- | --- | --- | --- |
| CO[C@H]1C[C@H]2OC[C@@]2(OC(C)=O)[C@H]2[C@H](OC(=O)c3ccccc3)[C@]3(O)C[C@H](OC(=O)[C@H](O)[C@@H](NC(=O)OC(C)(C)C)c4ccccn4)C(C)=C([C@@H](OC(=O)N(C)C)C(=O)[C@]12C)C3(C)C [PCMI-24] | 94 | 95.5 | 86.8 | 73.8 | 78.9 | 93.5 | 84.7 | 81.1 | 98.1 | 88.1 | 100 | 92.2 | 81.1 | 82.3 | 76.3 | 83.6 | 2.93 | 3.1 | 100 | 106 | recovery ([4]; Sample-02, Caco-2, Sample-02): 94.8% |
| COC(=O)O[C@H]1C(=O)[C@]2(C)[C@@H](OC)C[C@H]3OC[C@@]3(OC(C)=O)[C@H]2[C@H](OC(=O)c2ccccc2)[C@]2(O)C[C@H](OC(=O)[C@H](O)[C@@H](NC(=O)N(C)C)c3ccccc3)C(C)=C1C2(C)C [PCMI-29] | 97.7 | 92.5 | 92.8 | 78.1 | 80.6 | 90.8 | 86.7 | 68.7 | 96.8 | 81.7 | 97.3 | 90.8 | 84.3 | 91.3 | 75.7 | 85.2 | 9.53 | 7.33 | 99.4 | 102 | Papp A→B [4, 5]: 8.43 ×10⁻⁶ cm/s; recovery ([4]; Sample-02, Caco-2, Sample-02): 97% |
| CCSC(=O)O[C@H]1C(=O)[C@]2(C)[C@@H](OC)C[C@H]3OC[C@@]3(OC(C)=O)[C@H]2[C@H](OC(=O)c2ccccc2)[C@]2(O)C[C@H](OC(=O)[C@H](O)[C@@H](NC(=O)OC(C)(C)C)c3ccccc3)C(C)=C1C2(C)C [PCMI-30] | 95 | 95.6 | 96.9 | 75.8 | 81.7 | 94.9 | 90.3 | 65.5 | 98.5 | 87.8 | 101 | 92.6 | 86.2 | 95.8 | 81.3 | 85.8 | 5.78 | 3.59 | 76.5 | 70.4 | Papp A→B [4, 5]: 4.68 ×10⁻⁶ cm/s; recovery ([4]; Sample-02, Caco-2, Sample-02): 82.6% |
| COC(=O)O[C@H]1C[C@H]2OC[C@@]2(OC(C)=O)[C@H]2[C@H](OC(=O)c3ccccc3)[C@]3(O)C[C@H](OC(=O)[C@H](O)[C@@H](NC(=O)c4ccccc4)c4ccccc4)C(C)=C([C@@H](OC)C(=O)[C@]12C)C3(C)C [PCMI-37] | 98.3 | 96.4 | 97.4 | 80 | 85.3 | 95.7 | 88.5 | 67.4 | 97 | 89.7 | 102 | 94.5 | 85.5 | 103 | 86.1 | 89.5 | 3.23 | 3.41 | 80.6 | 81.2 | recovery ([4]; Sample-02, Caco-2, Sample-02): 80% |
| COC(=O)O[C@H]1C(=O)[C@]2(C)[C@@H](OC)C[C@H]3OC[C@@]3(OC(C)=O)[C@H]2[C@H](OC(=O)c2ccccc2)[C@]2(O)C[C@H](OC(=O)[C@H](O)[C@@H](NC(=O)c3ccccc3)c3ccccc3)C(C)=C1C2(C)C [PCMI-27] | 96.3 | 94.1 | 103 | 74.8 | 79.2 | 94.1 | 83.3 | 78.3 | 97.4 | 87.3 | 99.5 | 94.5 | 82.6 | 95.3 | 83.3 | 80.4 | 4.44 | 4.31 | 95.6 | 99.3 | recovery ([4]; Sample-02, Caco-2, Sample-02): 91.9% |
